# Laboratory results: patent publication US7517998B2, “Non nucleoside reverse transcriptase inhibitors” (priority 2004, dated 2009)
# Target: T1, K103NNY181C mutant reverse transcriptase (Human immunodeficiency virus type 1 group M subtype B, UniProt P04585, K690N/Y768C)
# T1 construct: mutations that occur in the reverse transcriptase segment of the pol gene
# Experiment: Reverse transcriptase enzymatic assay (PicoGreen), K103N/Y181C mutant RT
# Format: biochemical, HIV-1
# Settings: IC50 mut, K103N/Y181C mutant reverse transcriptase, enzymatic assay of Example 24
# Outline: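 PicoGreen fluorescence (ex 485, em 520 nm) quantified product after EDTA stop. Reaction ran 50 min at 37 °C in pH 7.8 Tris/HCl buffer, 1% DMSO, with poly rC/dG15 template-primer (45/4.5 nM), 3.6 μM dGTP, 2.5 nM enzyme; inhibitor 10 μM–0.508 nM final after 15 min room-temperature pre-incubation.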
row,SMILES,IC50 [nM]
1,CC(C)(C#Cc1ccc(NC(=O)CSc2nnnn2-c2ccc(C(C)(C)C)cc2Cl)c(Cl)c1)COC(N)=O [Compound 4042],37
2,CC(=O)NNC(=O)COC(C)(C)C#Cc1ccc(NC(=O)CSc2nnnn2-c2ccc(C(C)(C)C)cc2Cl)c(Cl)c1 [Compound 4043],35
3,CC(C)(C#Cc1ccc(NC(=O)CSc2nnnn2-c2ccc(C(C)(C)C)cc2Cl)c(Cl)c1)OCC(=O)Nc1ccccc1 [Compound 4044],296
4,CC(C)(C#Cc1ccc(NC(=O)CSc2nnnn2-c2ccc(C(C)(C)C)cc2Cl)c(Cl)c1)OCC(=O)Nc1ccc(C(=O)O)cc1 [Compound 4045],32
5,CC(CC(=O)O)NC(=O)COC(C)(C)C#Cc1ccc(NC(=O)CSc2nnnn2-c2ccc(C(C)(C)C)cc2Cl)c(Cl)c1 (centres unmarked) [Compound 4046],23
6,CN(C)CCNC(=O)COC(C)(C)C#Cc1ccc(NC(=O)CSc2nnnn2-c2ccc(C(C)(C)C)cc2Cl)c(Cl)c1 [Compound 4047],66
7,CC(C)(C#Cc1ccc(NC(=O)CSc2nnnn2-c2ccc(C(C)(C)C)cc2Cl)c(Cl)c1)OCC(=O)NCCO [Compound 4048],26
8,CN(C)C(=O)COC(C)(C)C#Cc1ccc(NC(=O)CSc2nnnn2-c2ccc(C(C)(C)C)cc2Cl)c(Cl)c1 [Compound 4049],30
9,CN(O)C(=O)COC(C)(C)C#Cc1ccc(NC(=O)CSc2nnnn2-c2ccc(C(C)(C)C)cc2Cl)c(Cl)c1 [Compound 4050],66
10,CNC(=O)COC(C)(C)C#Cc1ccc(NC(=O)CSc2nnnn2-c2ccc(C(C)(C)C)cc2Cl)c(Cl)c1 [Compound 4051],35
11,CC(C)(C#Cc1ccc(NC(=O)CSc2nnnn2-c2ccc(C(C)(C)C)cc2Cl)c(Cl)c1)OCC(=O)NCC(=O)O [Compound 4052],30
12,CC(NC(=O)COC(C)(C)C#Cc1ccc(NC(=O)CSc2nnnn2-c2ccc(C(C)(C)C)cc2Cl)c(Cl)c1)C(=O)O (centres unmarked) [Compound 4053],25
13,CC(C)(C#Cc1ccc(NC(=O)CSc2nnnn2-c2ccc(C(C)(C)C)cc2Cl)c(Cl)c1)OCC(=O)Nc1ccon1 [Compound 4054],35
14,CC(C)(C#Cc1ccc(NC(=O)CSc2nnnn2-c2ccc(C(C)(C)C)cc2Cl)c(Cl)c1)OCC(=O)NCCC(=O)O [Compound 4055],15
15,CC(C)(C#Cc1ccc(NC(=O)CSc2nnnn2-c2ccc(C(C)(C)C)cc2Cl)c(Cl)c1)OCC(=O)NNC(N)=O [Compound 4056],26
16,Cc1cc(C#CC(C)(C)C(=O)O)ccc1NC(=O)CSc1nnnn1-c1ccc(C(C)(C)C)cc1Cl [Compound 4057],96
17,Cc1cc(C(F)(F)F)cc(-n2nnnc2SCC(=O)Nc2ccc(C#CC(C)(C)C(=O)O)cc2Cl)c1Cl [Compound 4058],63
18,Cc1ccc(-n2nnnc2SCC(=O)Nc2ccc(C#CC(C)(C)O)cc2Cl)c(Cl)c1C(F)(F)F [Compound 4059],656
19,Cc1cc(Cl)c(-n2nnnc2SCC(=O)Nc2ccc(C#CC(C)(C)O)cc2Cl)cc1C(F)(F)F [Compound 4060],42
20,CC(C)(C)c1ccc(-n2nnnc2SCC(=O)Nc2ccc(C#CCCCOC(N)=O)cc2Cl)c(Cl)c1 [Compound 4061],16
21,CC(C)(C)c1ccc(-n2nnnc2SCC(=O)Nc2ccc(C#CC3(O)CCC3)cc2Cl)c(Cl)c1 [Compound 4062],53
22,Cc1cc(Cl)c(-n2nnnc2SCC(=O)Nc2ccc(C#CC(C)(C)C(=O)O)cc2Cl)cc1C(F)(F)F [Compound 4063],51.5

row,SMILES,IC50 [nM]
1,CC(C)(C#Cc1ccc(NC(=O)CSc2nnnn2-c2ccc(C3CC3)cc2Cl)c(Cl)c1)OCC(N)=O [Compound 4064],11.5
2,CC(C)(O)C#Cc1ccc(NC(=O)CSc2nnnn2-c2cc3c(cc2Cl)CCC3)c(Cl)c1 [Compound 4065],13.5
3,CCC(C#Cc1ccc(NC(=O)CSc2nnnn2-c2ccc(C3CC3)cc2Cl)c(Cl)c1)(CC)NC(=O)OC(C)(C)C [Compound 4066],732
4,CCC(N)(C#Cc1ccc(NC(=O)CSc2nnnn2-c2ccc(C3CC3)cc2Cl)c(Cl)c1)CC [Compound 4068],38.5
5,CC(C)(C#Cc1ccc(NC(=O)CSc2nnnn2-c2ccc(C3CC3)cc2Cl)c(Cl)c1)NC(=O)OC(C)(C)C [Compound 4069],112
6,CC(C)(O)C#Cc1ccc(NC(=O)CSc2nnnn2-c2cc(Cl)c(C3CC3)cc2Cl)c(Cl)c1 [Compound 4070],82.5
7,CNC(=O)NC(C)(C)C#Cc1ccc(NC(=O)CSc2nnnn2-c2ccc(C3CC3)cc2Cl)c(Cl)c1 [Compound 4071],8.75
8,COC(C)(C)C#Cc1ccc(NC(=O)CSc2nnnn2-c2ccc(C3CC3)cc2Cl)c(Cl)c1 [Compound 4074],35.5
9,CCNC(=O)NC(C)(C)C#Cc1ccc(NC(=O)CSc2nnnn2-c2ccc(C3CC3)cc2Cl)c(Cl)c1 [Compound 4075],20.5
10,CC(C)(C#Cc1ccc(NC(=O)CSc2nnnn2-c2ccc(C3CC3)cc2Cl)c(Cl)c1)NS(C)(=O)=O [Compound 4076],17.5
11,COC(=O)C(C)(C)C#Cc1ccc(NC(=O)CSc2nnnn2-c2cc(C(F)(F)F)ccc2Cl)c(Cl)c1 [Compound 4077],44.5
12,CC(C)(O)C#Cc1ccc(NC(=O)CSc2nnnn2-c2ccc(C3CC3)cc2Cl)c(Br)c1 [Compound 4078],13.5
13,CC(C)(C#Cc1ccc(NC(=O)CSc2nnnn2-c2ccc(C3CC3)cc2Cl)c(Cl)c1)NC(=O)C1CC1 [Compound 4079],6.8
14,CC(=O)NC(C)(C)C#Cc1ccc(NC(=O)CSc2nnnn2-c2ccc(C3CC3)cc2Cl)c(Cl)c1 [Compound 4080],8.45
15,CCOC(=O)NC(C)(C)C#Cc1ccc(NC(=O)CSc2nnnn2-c2ccc(C3CC3)cc2Cl)c(Cl)c1 [Compound 4081],19.5
16,O=C(CSc1nnnn1-c1ccc(C2CC2)cc1Cl)Nc1ccc(C#CC2(CO)CC2)cc1Cl [Compound 4083],29
17,CC(C)(C#Cc1ccc(NC(=O)CSc2nnnn2-c2ccc(C3CC3)cc2Cl)c(Cl)c1)NC(=O)c1ccncc1 [Compound 4085],12
18,CC(C)(C#Cc1ccc(NC(=O)CSc2nnnn2-c2ccc(C3CC3)cc2Cl)c(Cl)c1)NC(=O)c1cc[n+]([O-])cc1 [Compound 4086],12
19,CN(C)CC(=O)NC(C)(C)C#Cc1ccc(NC(=O)CSc2nnnn2-c2ccc(C3CC3)cc2Cl)c(Cl)c1 [Compound 4087],21.5
20,C#Cc1ccc(NC(=O)CSc2nnnn2-c2ccc(C(C)(C)C)cc2Cl)c(Cl)c1 [Compound 4089],69
21,O=C(CSc1nnnn1-c1ccc(C2CC2)cc1Cl)Nc1ccc(C#CC2(CN3CCCC3)CC2)cc1Cl [Compound 4092],61.5
22,CN1CCN(CC2(C#Cc3ccc(NC(=O)CSc4nnnn4-c4ccc(C5CC5)cc4Cl)c(Cl)c3)CC2)CC1 [Compound 4094],48.5

row,SMILES,IC50 [nM]
1,O=C(CSc1nnnn1-c1ccc(C2CC2)cc1Cl)Nc1ccc(C#CC2(CNCCN3CCCC3)CC2)cc1Cl [Compound 4095],98.5
2,O=C(CSc1nnnn1-c1ccc(C2CC2)cc1Cl)Nc1ccc(C#CC2(CN3CCC(O)CC3)CC2)cc1Cl [Compound 4096],37
3,CC(C)(C#Cc1ccc(NC(=O)CSc2nnnn2-c2ccc(C3CC3)cc2Cl)c(Cl)c1)OCCO [Compound 4098],16.5
4,CC(C)c1ccc(-n2nnnc2SCC(=O)Nc2ccc(C#CC(C)(C)C(=O)O)cc2Cl)c(Br)c1 [Compound 4099],42.5
5,CC(C)(C#Cc1ccc(NC(=O)CSc2nnnn2-c2ccc(C3CC3)cc2Cl)c(Cl)c1F)C(=O)O [Compound 4100],18
6,CC(C)(C#Cc1ccc(NC(=O)CSc2nnnn2-c2cc(C(F)(F)F)ccc2Cl)c(Cl)c1F)C(=O)O [Compound 4101],57
7,CC(C)(C)c1ccc(-n2nnnc2SCC(=O)Nc2ccc(C#CCCC(=O)O)cc2Cl)c(Cl)c1 [Compound 4102],24.5
8,CC(C)(C#Cc1ccc(NC(=O)CSc2nnnn2-c2ccc(C3CC3)cc2Cl)c(Cl)c1)OCCN1CCCCC1 [Compound 4103],218
9,CC(C)(C#Cc1ccc(NC(=O)CSc2nnnn2-c2ccc(C3CC3)cc2Cl)c(Cl)c1)OCCN1CCC(O)CC1 [Compound 4104],64.5
10,CN1CCN(CCOC(C)(C)C#Cc2ccc(NC(=O)CSc3nnnn3-c3ccc(C4CC4)cc3Cl)c(Cl)c2)CC1 [Compound 4105],66.5
11,CC(C)(C#Cc1ccc(NC(=O)CSc2nnnn2-c2ccc(C3CC3)cc2Cl)c(Cl)c1)NC(=O)c1ccccc1 [Compound 4106],19
12,CC(C)(C#Cc1ccc(NC(=O)CSc2nnnn2-c2ccc(C3CC3)cc2Cl)c(Cl)c1)NC(=O)c1csnn1 [Compound 4107],15
13,CN(C)CCCC(=O)NC(C)(C)C#Cc1ccc(NC(=O)CSc2nnnn2-c2ccc(C3CC3)cc2Cl)c(Cl)c1 [Compound 4108],27
14,CC(C)(C#Cc1ccc(NC(=O)CSc2nnnn2-c2ccc(C3CC3)cc2Cl)c(Cl)c1)NC(=O)Cn1cncn1 [Compound 4109],10.8
15,CN1CCC[C@H]1C(=O)NC(C)(C)C#Cc1ccc(NC(=O)CSc2nnnn2-c2ccc(C3CC3)cc2Cl)c(Cl)c1 [Compound 4110],11.5
16,CC(C)(C#Cc1ccc(NC(=O)CSc2nnnn2-c2ccc(C3CC3)cc2Cl)c(Cl)c1)NC(=O)c1cnccn1 [Compound 4111],8.6
17,C=C(C)C#Cc1ccc(NC(=O)CSc2nnnn2-c2ccc(C3CC3)cc2Cl)c(Cl)c1 [Compound 4112],54
18,COc1ccc(Cl)c(-n2nnnc2SCC(=O)Nc2ccc(C#CC(C)(C)C(=O)O)cc2Cl)c1 [Compound 4114],200
19,CC(C)(C#Cc1ccc(NC(=O)CSc2nnnn2-c2ccc(C3CC3)cc2Cl)c(Cl)c1)OCCNC1CC1 [Compound 4117],52
20,CC(C)(C#Cc1ccc(NC(=O)CSc2nnnn2-c2ccc(C3CC3)cc2Cl)c(Cl)c1)OCCNC1CCC1 [Compound 4118],89.5
21,CC(C)(C#Cc1ccc(NC(=O)CSc2nnnn2-c2ccc(C3CC3)cc2Cl)c(Cl)c1)OCCN1CCC1 [Compound 4119],121
